In patent US5880258A (dated 1999):
*1 amine or outer side, *2 acyl side, *3 side chain or, on linkers, in order; H or OH if unused. Where a SMILES comes first, the peptide text is derived from it. Where no end group is shown, it is not given here. [ ]: non-standard residue; d: D form. The star is where a group is joined. sY = N[C@@H](Cc1ccc(OS(=O)(=O)O)cc1)C(=O)O; X2 = CC(C)C[C@H](N*)C(=O)NP(=O)(O)O; Asu = N[C@@H](CCCCCC(=O)O)C(=O)O; Suc = O=C(CCC(=O)[*:2])[*:1]; Leu(ol) = CC(C)C[C@H](N)CO; βAla = NCCC(=O)O

Tests used:
thrombin [1] = target: T1, thrombin (Homo sapiens, UniProt P00734); assay: anti-thrombin activity; chromogenic assay (Chromozym TH hydrolysis, apparent dissociation constant Ki'); type: biochemical; parameters: 100 μl of human-thrombin prepared at 10 NIH units/ml in aforesaid buffer; details: for Ki: apparent dissociation constant, 350 pM human-thrombin, 100 μM Chromozym TH, 37° C.; for Potency: relative to hirudin HV-1 = 1
Description: Anti-thrombin activities were measured by measuring the degree of inhibition of thrombin's hydrolytic activity on synthetic substrate Chromozym TH (Tocylglycil-prolylarginine-4-nitroanilideacetate). This reaction was carried out as follows. […] Here, the molar concentration of aforementioned human-thrombin was determined by the method of active site titration [G. W. Jameson et al., Biochem. J., 131, p107-117 (1973)] using 4-methylunberifenyl-p-guanidinobenzoate as substrate. After the pre-incubation, Chromozym TH (product of Boehringer-Mannheim) was added to a final concentration of 100 μM, and released p-nitroanilide was measured at the wave length of 405 nm, and the initial velocity of the hydrolytic reactions were measured for each of the abovementioned hirudins at various concentrations. From this initial velocity of the hydrolytic reactions, the apparent dissociation constants Ki' were calculated by the method of S. R. Stone et al. [Biochemistry, 25, p4622-4628 (1986)].

thrombin [2] = target: T1, thrombin; assay: anti-thrombin activity; clotting assay (coagulation time with fibrinogen as substrate); type: biochemical; parameters: 100 μl of human-thrombin prepared at 10 NIH units/ml in aforesaid buffer; details: for Potency: calculated using the definition that HV-1 (54-65) potency is 1; for IC50: concentration corresponding to 50 thrombin units, human-thrombin 10 NIH units/ml, human-fibrinogen 6 mg/ml, read-out: 50% Inhibition Concentration (converted)
Description: Measurement of anti-thrombin activity was done by looking at anti-coagulant activity as an index using fibrinogen as the substrate. That is, the compounds were dossolved in 200 μl of 0.1 mM Tris-HCl buffer (pH7.5) containing 0.1% polyethyleneglycol-6000, 100 μl of human-thrombin prepared at 10 NIH units/ml in aforesaid buffer, were added 200 μl of human-fibrinogen (Sigma) prepared at 6 mg/ml in aforesaid tris-hydrochloride buffer were added, and the coagulation time of the reaction mixtures were measured. For measuring of coagulation times, coagulation time analyzer (Amelung KC10A) was used. Obtained values were converted into units by using a previously prepared thrombin standard curve. Graphs were prepared by plotting the converted values on the vertical axis, and the concentrations of the compounds on the horizontal axis. In the graphs, the thrombin unit was defined as 100 at a compound concentration of 0. The concentration of compounds corresponding to 50 units were defined as 50% inhibitory concentrations of compounds.

## Val--Val--Tyr--Thr--Asp--Cys--Thr--Glu--Ser--Gly--Gln--Asn--Leu--Cys--Leu--Cys--Glu--Gly--Ser--Asn--Val--Cys--Gly--Gln--Gly--Asn--Lys--Cys--Ile--Leu--Gly--Ser--Asp--Gly--Glu--Lys--Asn--Gln--Cys--Val--Thr--Gly--Glu--Gly--Thr--Pro--Lys--Pro--Gln--Ser--His--Asn--Asp--Gly--Asp--Phe--Glu--Glu--Ile--Pro--Tyr--Tyr(SO3 H)--Tyr(SO3 H)--Leu--Gln [Sulfated form of hirudin HV-17 peak 1]
Thrombin [1]
  Ki: 2.8 pM
  Potency: 2.3

## Val--Val--Tyr--Thr--Asp--Cys--Thr--Glu--Ser--Gly--Gln--Asn--Leu--Cys--Leu--Cys--Glu--Gly--Ser--Asn--Val--Cys--Gly--Gln--Gly--Asn--Lys--Cys--Ile--Leu--Gly--Ser--Asp--Gly--Glu--Lys--Asn--Gln--Cys--Val--Thr--Gly--Glu--Gly--Thr--Pro--Lys--Pro--Gln--Ser--His--Asn--Asp--Gly--Asp--Phe--Glu--Glu--Ile--Pro--Tyr--Tyr--Tyr(SO3 H)--Leu--Gln [Sulfated form of hirudin HV-17 peak 2]
Thrombin [1]
  Ki: 4.3 pM
  Potency: 1.5

## Val--Val--Tyr--Thr--Asp--Cys--Thr--Glu--Ser--Gly--Gln--Asn--Leu--Cys--Leu--Cys--Glu--Gly--Ser--Asn--Val--Cys--Gly--Gln--Gly--Asn--Lys--Cys--Ile--Leu--Gly--Ser--Asp--Gly--Glu--Lys--Asn--Gln--Cys--Val--Thr--Gly--Glu--Gly--Thr--Pro--Lys--Pro--Gln--Ser--His--Asn--Asp--Gly--Asp--Phe--Glu--Glu--Ile--Pro--Tyr--Tyr(SO3 H)--Tyr--Leu--Gln [Sulfated form of hirudin HV-17 peak 3]
Thrombin [1]
  Ki: 5.9 pM
  Potency: 1.1

## CC[C@H](C)[C@H](NC(=O)[C@@H]1CCCN1C(=O)[C@H](CCC(=O)O)NC(=O)[C@H](Cc1ccccc1)NC(=O)[C@H](CC(=O)O)NC(=O)CCC(=O)O)C(=O)N1CCC[C@H]1C(=O)N[C@@H](CCC(=O)O)C(=O)N[C@@H](Cc1ccc(OS(=O)(=O)O)cc1)C(=O)N[C@@H](Cc1ccc(OS(=O)(=O)O)cc1)C(=O)N[C@@H](CC(C)C)C(=O)N[C@@H](CCC(N)=O)C(=O)O [Sulfated form of (F), Suc--Asp--Phe--Glu--Pro--Ile--Pro--Glu--Tyr(SO3 H)--Tyr(SO3 H)--Leu--Gln--OH] (Suc-DFEPIPE[sY][sY]LQ-OH)
Thrombin [2]
  Potency: 1.32
  IC50: 3 µM

## CC[C@H](C)[C@H](NC(=O)[C@@H]1CCCN1C(=O)[C@H](CCC(=O)O)NC(=O)[C@H](Cc1ccccc1)NC(=O)CCC(=O)O)C(=O)N1CCC[C@H]1C(=O)N[C@@H](CCC(=O)O)C(=O)N[C@@H](Cc1ccc(O)cc1)C(=O)N[C@@H](Cc1ccc(O)cc1)C(=O)N[C@@H](CC(C)C)C(=O)NP(=O)(O)O [(Y)] (Suc-FEPIPEYY-X2)
Thrombin [2]
  IC50: 114 µM

## CC[C@H](C)[C@H](NC(=O)[C@@H]1CCCN1C(=O)[C@H](CCC(=O)O)NC(=O)[C@H](Cc1ccccc1)NC(=O)CCC(=O)O)C(=O)N1CCC[C@H]1C(=O)N[C@@H](CCC(=O)O)C(=O)N[C@@H](Cc1ccc(OS(=O)(=O)O)cc1)C(=O)N[C@@H](Cc1ccc(OS(=O)(=O)O)cc1)C(=O)O [Sulfated form of (I), Suc--Phe--Glu--Pro--Ile--Pro--Glu--Tyr(SO3 H)--Tyr(SO3 H)--OH] (Suc-FEPIPE[sY][sY]-OH)
Thrombin [2]
  Potency: 1.62
  IC50: 3.1 µM

## GDFEEIPEYYLQ [(A)]
Thrombin [2]
  IC50: 9.78 µM

## CC[C@H](C)[C@H](NC(=O)[C@@H]1CCCN1C(=O)[C@H](CCC(=O)O)NC(=O)[C@H](Cc1ccccc1)NC(=O)CCC(=O)O)C(=O)N1CCC[C@H]1C(=O)N[C@@H](CCC(=O)O)C(=O)N[C@@H](Cc1ccc(O)cc1)C(=O)N[C@@H](Cc1ccc(O)cc1)C(=O)O [(I)] (Suc-FEPIPEYY-OH)
Thrombin [2]
  Potency: 0.83
  IC50: 17.3 µM

## CC[C@H](C)[C@H](NC(=O)[C@@H]1CCCN1C(=O)[C@H](CCC(=O)O)NC(=O)[C@H](Cc1ccccc1)NC(=O)CCC(=O)O)C(=O)N1CCC[C@H]1C(=O)N[C@@H](CCC(=O)O)C(=O)N[C@@H](Cc1ccc(O)cc1)C(=O)N[C@@H](Cc1ccc(O)cc1)C(=O)N[C@H](CO)CC(C)C [(P)] (Suc-FEPIPEYY[Leu(ol)])
Thrombin [2]
  IC50: 82.7 µM

## CC[C@H](C)[C@H](NC(=O)[C@@H]1CCCN1C(=O)[C@H](CCC(=O)O)NC(=O)[C@H](Cc1ccccc1)NC(=O)CCC(=O)O)C(=O)N1CCC[C@H]1C(=O)N[C@@H](CCC(=O)O)C(=O)N[C@@H](Cc1ccc(OS(=O)(=O)O)cc1)C(=O)N[C@@H](Cc1ccc(OS(=O)(=O)O)cc1)C(=O)N[C@@H](CC(C)C)C(=O)N[C@@H](CCC(N)=O)C(=O)O [Sulfated form of (G), Suc--Phe--Glu--Pro--Ile--Pro--Glu--Tyr(SO3 H)--Tyr(SO3 H)--Leu--Gln--OH] (Suc-FEPIPE[sY][sY]LQ-OH)
Thrombin [2]
  Potency: 108.87
  IC50: 0.0389 µM

## GDFEEIPYYYLQ [(B)]
Thrombin [2]
  IC50: 9 µM

## CC[C@H](C)[C@H](NC(=O)[C@@H]1CCCN1C(=O)[C@H](CCC(=O)O)NC(=O)[C@H](Cc1ccccc1)NC(=O)[C@H](CC(=O)O)NC(=O)CNC(=O)CCC(=O)O)C(=O)N1CCC[C@H]1C(=O)N[C@@H](Cc1ccc(OS(=O)(=O)O)cc1)C(=O)N[C@@H](Cc1ccc(OS(=O)(=O)O)cc1)C(=O)N[C@@H](Cc1ccc(OS(=O)(=O)O)cc1)C(=O)N[C@@H](CC(C)C)C(=O)N[C@@H](CCC(N)=O)C(=O)O [Sulfated form of (E), Suc--Gly--Asp--Phe--Glu--Pro--Ile--Pro--Tyr(SO3 H)--Tyr(SO3 H)--Tyr(SO3 H)--Leu--Gln--OH] (Suc-GDFEPIP[sY][sY][sY]LQ-OH)
Thrombin [2]
  Potency: 44.41
  IC50: 0.0807 µM

## CC[C@H](C)[C@H](NC(=O)[C@@H]1CCCN1C(=O)[C@H](CCC(=O)O)NC(=O)[C@H](Cc1ccccc1)NC(=O)CCC(=O)O)C(=O)N1CCC[C@H]1C(=O)N[C@@H](CCC(=O)O)C(=O)N[C@@H](Cc1ccc(OS(=O)(=O)O)cc1)C(=O)N[C@@H](Cc1ccc(OS(=O)(=O)O)cc1)C(=O)N[C@@H](CC(C)C)C(=O)O [Sulfated form of (Q), Suc--Phe--Glu--Pro--Ile--Pro--Glu--Tyr (SO3 H)--Tyr(SO3 H)--Leu--OH] (Suc-FEPIPE[sY][sY]L-OH)
Thrombin [2]
  Potency: 1.85
  IC50: 2.49 µM

## CC[C@H](C)[C@H](NC(=O)[C@@H]1CCCN1C(=O)[C@H](CCC(=O)O)NC(=O)[C@H](Cc1ccccc1)NC(=O)CCC(=O)O)C(=O)N1CCC[C@H]1C(=O)N[C@@H](CCC(=O)O)C(=O)N[C@@H](Cc1ccc(O)cc1)C(=O)N[C@@H](Cc1ccc(O)cc1)C(N)=O [(J)] (Suc-FEPIPEYY-NH2)
Thrombin [2]
  Potency: 0.07
  IC50: 85.1 µM

## CC[C@H](C)[C@H](NC(=O)[C@@H]1CCCN1C(=O)[C@H](CCC(=O)O)NC(=O)[C@H](Cc1ccccc1)NC(=O)CCC(=O)O)C(=O)N1CCC[C@H]1C(=O)N[C@@H](CCC(=O)O)C(=O)N[C@@H](Cc1ccc(OS(=O)(=O)O)cc1)C(=O)N[C@@H](Cc1ccc(OS(=O)(=O)O)cc1)C(=O)N[C@@H](CC(C)C)C(=O)N[C@@H](CCCCCC(N)=O)C(N)=O [Sulfated form of (X), Suc--Phe--Glu--Pro--Ile--Pro--Glu--Tyr(SO2 H)--Tyr(SO3 H)--Leu--(L)Asu(NH2)NH2] (Suc-FEPIPE[sY][sY]L[Asu](NH2)-NH2)
Thrombin [2]
  IC50: 2 µM

## CC[C@H](C)[C@H](NC(=O)[C@@H]1CCCN1C(=O)[C@H](CCC(=O)O)NC(=O)[C@H](Cc1ccccc1)NC(=O)CCC(=O)O)C(=O)N1CCC[C@H]1C(=O)N[C@@H](CCC(=O)O)C(=O)N[C@@H](Cc1ccc(OS(=O)(=O)O)cc1)C(=O)N[C@@H](Cc1ccc(OS(=O)(=O)O)cc1)C(=O)NCCC(=O)O [Sulfated form of (K), Suc--Phe--Glu--Pro--Ile--Pro--Glu--Tyr(SO3 H)--Tyr(SO3 H)--NH(CH2)2 COOH] (Suc-FEPIPE[sY][sY][βAla]-OH)
Thrombin [2]
  Potency: 1.02
  IC50: 4.65 µM
